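Where inhibition never reached the appropriate level, the endpoint shown equals the highest concentration tested. Otherwise, values were interpolated linearly from a five-concentration, 48-hour dose response in 96-well plates. GI50 = concentration required for 50% inhibition of growth.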 Activity calls are given as the source filed them. Rule as the data show it: active = GI50 up to about 1.1 µM and inactive = higher.
Experiments:
Experiment in all cases: growth of human tumour cells (NCI), 48 h
NCI/ADR-RES = tested on: NCI/ADR-RES
M14 = tested on: M14
HOP-92 = tested on: HOP-92
SNB-75 = tested on: SNB-75
BT-549 = tested on: BT-549
COLO 205 = tested on: COLO 205
ACHN = tested on: ACHN
IGROV-1 = tested on: IGROV-1
A498 = tested on: A498
EKVX = tested on: EKVX
UACC-62 = tested on: UACC-62
MDA-MB-435 = tested on: MDA-MB-435
HL-60 = tested on: HL-60
OVCAR-3 = tested on: OVCAR-3
U-251 = tested on: U-251
SF-295 = tested on: SF-295
Malme-3M = tested on: Malme-3M
HT-29 = tested on: HT-29
SF-268 = tested on: SF-268
MDA-MB-231 = tested on: MDA-MB-231

Measured: GI50

O=C(c1nc2ccc([N+](=O)[O-])cc2nc1O)C(O)c1ccc2c(c1)OCO2 (stereo not given)
inactive: NCI/ADR-RES > 100 µM | M14 > 94 µM | HOP-92 > 100 µM | SNB-75 > 100 µM | BT-549 > 100 µM | COLO 205 > 96.4 µM | ACHN > 100 µM | IGROV-1 > 100 µM | A498 > 100 µM | EKVX > 100 µM | UACC-62 96.4 µM | MDA-MB-435 93.1 µM | HL-60 > 39.1 µM | OVCAR-3 > 50.7 µM | U-251 > 100 µM | SF-295 > 52.5 µM | Malme-3M > 100 µM | HT-29 > 100 µM | SF-268 > 100 µM | MDA-MB-231 > 100 µM

Source: ChEMBL document CHEMBL1201862, “PubChem BioAssay data set” (2004)
